{"source": "patent US20180050078A1", "about": "“COMPOSITION FOR IMPROVING OR PREVENTING NONALCOHOLIC FATTY LIVER” (KOHJIN LIFE SCIENCES CO., LTD., priority 2015, published 2018)", "system": "Mice (C57/B6J) fed with high-fat food", "from_the_text": "Mice (C57/B6J, 8 weeks old male) were divided into 4 groups (5 animals each), and the first group (DB) was freely fed with ordinary food (CertifiedDiet “MF” manufactured by Oriental Yeast Co., ltd.). The second group (HFD) was freely fed with high-fat food (High Fat Diet 32, manufactured by CLEA Japan, Inc.), […].\nWhen the mouse was 20 weeks old, the body weight, the liver weight, the serum aspartate aminotransferase (AST), the alanine aminotransferase (ALT), the serum triglyceride (TG), the free fatty acid value (FFA) and the total cholesterol value (T-cho) were measured.", "key": {"[1]": {"details": "HFD6 (6 mg/kg/day) and HFD60 (60 mg/kg/day) groups in comparison to HFD group, 20 weeks old"}, "[2]": {"details": "high-fat food mice, glutathione in water 6 or 60 mg/kg/day, 20 weeks old"}}}
{"smiles": "N[C@@H](CCC(=O)N[C@@H](CS)C(=O)NCC(=O)O)C(=O)O", "note": "[glutathione]", "values": [{"measurement": "FFA (free fatty acid value)", "setting": "[1]", "result": "significant decrease"}, {"measurement": "T-cho (total cholesterol value)", "setting": "[1]", "result": "significant decrease"}, {"measurement": "TG (triglyceride value)", "setting": "[1]", "result": "significant decrease"}, {"measurement": "serum AST, ALT, TG, FFA and T-cho: dose dependence", "setting": "HFD6 group compared with HFD60 group", "result": "decrease dependently on the concentration"}, {"measurement": "consumption amounts of feed and water", "setting": "all of the groups (DB, HFD, HFD6, HFD60)", "result": "no significant difference"}, {"measurement": "deposition of fat on the liver by high-fat food", "setting": "high-fat food mice, glutathione 6 or 60 mg/kg/day", "result": "suppressed"}, {"measurement": "body weight", "setting": "[2]", "result": "decrease of the body weight was recognized"}, {"measurement": "liver weight", "setting": "[2]", "result": "decreased dependently on the concentration"}, {"measurement": "ratio of liver weight/body weight", "setting": "[2]", "result": "decrease of the body weight ratio was also recognized"}]}
